From patent US11702411B2, “Pyridine, pyrazine, and triazine compounds as allosteric SHP2 inhibitors” (Revolution Medicines, Inc., priority 2017, dated 2023)

Target: SHP2 (Homo sapiens (Human), UniProt Q06124)
Experiment: SHP2 allosteric inhibition assay (DiFMUP prompt fluorescence, activating peptide)
Type: biochemical
Settings: 0.2 nM SHP2, 0.5 μM activating peptide, DiFMUP substrate; read-out: SHP2 Allosteric IC50
Excerpt: Without wishing to be bound by theory, SHP is allosterically activated through binding of bis-tyrosyl-phosphorylated peptides to its Src Homology 2 (SH2) domains. The latter activation step leads to the release of the auto-inhibitory interface of SHP2, which in turn renders the SHP2 protein tyrosine phosphatase (PTP) active and available for substrate recognition and reaction catalysis. The catalytic activity of SHP2 was monitored using the surrogate substrate DiFMUP in a prompt fluorescence assay format.
The phosphatase reactions were performed at room temperature in 96-well black polystyrene plate, flat bottom, non-binding surface (Corning, Cat #3650) using a final reaction volume of 100 μL and the following assay buffer conditions: 50 mM HEPES, pH 7.2, 100 mM NaCl, 0.5 mM EDTA, 0.05% P-20, 1 mM DTT.
The inhibition of SHP2 by compounds of the present disclosure (concentrations varying from 0.00005-10 μM) was monitored using an assay in which 0.2 nM of SHP2 was incubated with 0.5 μM of Activating Peptide 1 (sequence: H2N-LN(pY)IDLDLV(dPEG8)LST(pY)ASINFQK-amide) or Activating Peptide 2 (sequence: H2N-LN(pY)AQLWHA(dPEG8)LTI(pY)ATIRRF-amide). After 30-60-minutes incubation at 25° C., the surrogate substrate DiFMUP (Invitrogen, Cat #D6567) was added to the reaction and activity was determined by a kinetic read using a microplate reader (Envision, Perkin-Elmer or Spectramax M5, Molecular Devices). The excitation and emission wavelengths were 340 nm and 450 nm, respectively. Initial rates were determined from a linear fit of the data, and the inhibitor dose response curves were analyzed using normalized IC50 regression curve fitting with control based normalization.

Structure (SMILES) | IC50 [nM]
C[C@@H]1OCC2(CCN(c3ncc(-c4ccc5nccnc5c4)nc3CO)CC2)[C@@H]1N [Compound 12, {3-[(3S,4S)-4-amino-3-methyl-2-oxa-8-azaspiro[4.5]decan-8-yl]-6-(quinoxalin-6-yl)pyrazin-2-yl}methanol] | > 500
COc1ccc(F)c(-c2cnc(N3CCC4(CC3)CO[C@@H](C)[C@H]4N)c(CO)n2)c1Cl [Compound 17, {3-[(3S,4S)-4-amino-3-methyl-2-oxa-8-azaspiro[4.5]decan-8-yl]-6-(2-chloro-6-fluoro-3-methoxyphenyl)pyrazin-2-yl}methanol] | > 500
C[C@@H]1OCC2(CCN(c3ncc(-c4ccc5c(c4Cl)OCCC5)nc3CO)CC2)[C@@H]1N [Compound 16, {3-[(3S,4S)-4-amino-3-methyl-2-oxa-8-azaspiro[4.5]decan-8-yl]-6-(8-chloro-3,4-dihydro-2H-1-benzopyran-7-yl)pyrazin-2-yl}methanol] | 50 to 500
C[C@@H]1OCC2(CCN(c3ncc(-c4ccc5nccnc5c4Cl)nc3CO)CC2)[C@@H]1N [Compound 9, {3-[(3S,4S)-4-amino-3-methyl-2-oxa-8-azaspiro[4.5]decan-8-yl]-6-(5-chloroquinoxalin-6-yl)pyrazin-2-yl}methanol] | 50 to 500

The next lines start with the values.

IC50 [nM] | Structure (SMILES)
50 to 500 | C[C@@H]1OCC2(CCN(c3ncc(-c4ccc5c(c4Cl)OCC5)nc3CO)CC2)[C@@H]1N [Compound 10, {3-[(3S,4S)-4-amino-3-methyl-2-oxa-8-azaspiro[4.5]decan-8-yl]-6-(7-chloro-2,3-dihydro-1-benzofuran-6-yl)pyrazin-2-yl}methanol]
50 to 500 | C[C@@H]1OCC2(CCN(c3ncc(-c4cc5[nH]ncc5cc4Cl)nc3CO)CC2)[C@@H]1N [Compound 14, {3-[(3S,4S)-4-amino-3-methyl-2-oxa-8-azaspiro[4.5]decan-8-yl]-6-(5-chloro-2H-indazol-6-yl)pyrazin-2-yl}methanol]
≤ 50 | C[C@@H]1OCC2(CCN(c3ncc(Sc4ccnc(N5CC(O)C5)c4Cl)nc3CO)CC2)[C@@H]1N [Compound 29, 1-[4-({5-[(3S,4S)-4-amino-3-methyl-2-oxa-8-azaspiro[4.5]decan-8-yl]-6-(hydroxymethyl)pyrazin-2-yl}sulfanyl)-3-chloropyridin-2-yl]azetidin-3-ol]
≤ 50 | COc1cccc(Sc2cnc(N3CCC4(CC3)CO[C@@H](C)[C@H]4N)c(CO)n2)c1Cl [Compound 25, {3-[(3S,4S)-4-amino-3-methyl-2-oxa-8-azaspiro[4.5]decan-8-yl]-6-[(2-chloro-3-methoxyphenyl)sulfanyl]pyrazin-2-yl}methanol]
≤ 50 | C[C@@H]1OCC2(CCN(c3ncc(-c4cccc(Cl)c4Cl)nc3CO)CC2)[C@@H]1N [Compound 21, {3-[(3S,4S)-4-amino-3-methyl-2-oxa-8-azaspiro[4.5]decan-8-yl]-6-(2,3-dichlorophenyl)pyrazin-2-yl}methanol]
